Experimental data published in article PMC7782793, “Hydroxamic acid-modified peptide microarrays for profiling isozyme-selective interactions and inhibition of histone deacetylases” (Nature Communications, 2021).
Where “and” joins values, the source holds several entries; their conditions need not be identical. Identical values can stand only once. Marks after values point to notes of the source that are not given here. Non-standard residues stand in square brackets, D forms with d. Residues, ends and D or L forms follow the SMILES beside them. *: point of attachment. Asu = N[C@@H](CCCCCC(=O)O)C(=O)O; NHOH = ON*

Legend:
[1] = target: T1, HDAC1 (Homo sapiens, UniProt Q13547); assay: Recombinant HDAC µSPOT microarray binding assay;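 also: slides with spotted peptides incubated with six HDAC concentrations in HEPES buffer pH 7.4, spot intensities fitted by four-parameter logistic, EC50 as enzyme concentration giving half-maximal binding signal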
T1 construct: HDAC1 (full length, C-terminal His tag, C-terminal FLAG tag, BPS Bioscience, cat. #: 50051); FLAG (C); purchased BPS Bioscience 50051

[2] = target: T2, HDAC3/NCoR2 (Homo sapiens, UniProt O15379); assay: Recombinant HDAC µSPOT microarray binding assay;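 also: peptide spots on cellulose slides incubated with rising HDAC enzyme concentrations, imaged together, four-parameter logistic fit, EC50 is enzyme concentration giving half-maximal binding signal, two experiments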
T2 construct: HDAC3/NCoR2 (full length, C-terminal His tag, NCoR2 N-terminal GST tag); purchased BPS Bioscience 50003
Experimental: Experiments were performed twice, data were obtained with Array Analyze software (Active Motif), and data analysis and representation were performed with the GraphPad Prism 7 software. Outliers were curated manually and data were fitted to nonlinear regression [log(agonist) vs. response—variable slope (four parameters)]. […] Non-sigmoidal curves were denoted as not determined (N.D.) The pEC50 values were determined as the concentration of HDAC enzyme required for half-maximal binding signal.

[3] = target: T3, HDAC8 (Homo sapiens, UniProt Q9BY41); assay: Recombinant HDAC µSPOT microarray binding assay;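 also: peptide µSPOT slides incubated with varying HDAC enzyme concentrations, imaged signal intensity fitted by four-parameter variable-slope regression, EC50 is enzyme concentration giving half-maximal binding, pH 7.4 HEPES buffer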
T3 construct: HDAC8 (full length, C-terminal His tag, BPS Bioscience, cat. #: 50008); purchased BPS Bioscience 50008
T3 sequence (Q9BY41 1-377): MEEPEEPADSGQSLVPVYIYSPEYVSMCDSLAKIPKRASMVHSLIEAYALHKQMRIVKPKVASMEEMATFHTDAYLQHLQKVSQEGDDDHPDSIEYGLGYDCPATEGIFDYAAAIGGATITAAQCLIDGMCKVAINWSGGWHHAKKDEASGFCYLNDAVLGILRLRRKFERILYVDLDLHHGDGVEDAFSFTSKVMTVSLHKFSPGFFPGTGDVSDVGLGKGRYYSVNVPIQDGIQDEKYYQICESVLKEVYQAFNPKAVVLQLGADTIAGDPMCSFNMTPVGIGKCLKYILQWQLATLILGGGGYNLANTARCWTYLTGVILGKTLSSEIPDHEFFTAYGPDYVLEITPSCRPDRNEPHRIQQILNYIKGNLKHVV

[4] = target: T1, HDAC1; assay: HDAC inhibition assay (fluorogenic, Ac-Leu-Gly-Lys(Ac)-AMC); type: biochemical; conditions: for HDAC1 dose-response data (relative enzyme activity), Fig. 6 + S. Fig. 10: duplicate columns
[5] = target: T4, HDAC2 (Homo sapiens, UniProt Q92769); assay: as above; type: biochemical; conditions: for HDAC2 dose-response data (relative enzyme activity), Fig. 6 + S. Fig. 10: duplicate columns
T4 construct: HDAC2 (full length, C-terminal His tag, BPS Bioscience, cat. #: 50002); purchased BPS Bioscience 50002

[6] = target: T2, HDAC3/NCoR2; assay: as above; type: biochemical; conditions: for HDAC3 dose-response data (relative enzyme activity), Fig. 6 + S. Fig. 10: duplicate columns
[7] = target: T3, HDAC8; assay: HDAC inhibition assay (fluorogenic, Ac-Leu-Gly-Lys(Tfa)-AMC); type: biochemical; conditions: for HDAC8 dose-response data (relative enzyme activity, replicate values), Fig. 6 + S. Fig. 10: two replicate columns per inhibitor; for HDAC8 dose-response data (relative enzyme activity), Fig. 6 + S. Fig. 10: duplicate columns
[8] = target: T5, HDAC4 (Homo sapiens, UniProt P56524); assay: as above; type: biochemical; conditions: 2 internal replicates
T5 construct: purchased BPS Bioscience 50004

[9] = log[inhibitor(M)] -10,5850266520292*, whole line marked with asterisks

T5 sequence (P56524 627-1084): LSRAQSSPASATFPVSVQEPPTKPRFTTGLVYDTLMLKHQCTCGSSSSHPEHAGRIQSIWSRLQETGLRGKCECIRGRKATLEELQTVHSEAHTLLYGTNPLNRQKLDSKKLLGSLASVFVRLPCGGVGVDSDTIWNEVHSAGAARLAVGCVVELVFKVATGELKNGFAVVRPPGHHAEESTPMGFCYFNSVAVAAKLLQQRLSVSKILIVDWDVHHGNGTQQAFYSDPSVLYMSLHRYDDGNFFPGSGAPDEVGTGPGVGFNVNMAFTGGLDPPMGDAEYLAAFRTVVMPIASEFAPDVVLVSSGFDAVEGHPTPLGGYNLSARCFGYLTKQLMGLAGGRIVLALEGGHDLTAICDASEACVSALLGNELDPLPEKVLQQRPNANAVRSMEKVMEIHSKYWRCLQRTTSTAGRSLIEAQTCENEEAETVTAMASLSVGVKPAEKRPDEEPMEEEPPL
T4 sequence (Q92769 whole entry): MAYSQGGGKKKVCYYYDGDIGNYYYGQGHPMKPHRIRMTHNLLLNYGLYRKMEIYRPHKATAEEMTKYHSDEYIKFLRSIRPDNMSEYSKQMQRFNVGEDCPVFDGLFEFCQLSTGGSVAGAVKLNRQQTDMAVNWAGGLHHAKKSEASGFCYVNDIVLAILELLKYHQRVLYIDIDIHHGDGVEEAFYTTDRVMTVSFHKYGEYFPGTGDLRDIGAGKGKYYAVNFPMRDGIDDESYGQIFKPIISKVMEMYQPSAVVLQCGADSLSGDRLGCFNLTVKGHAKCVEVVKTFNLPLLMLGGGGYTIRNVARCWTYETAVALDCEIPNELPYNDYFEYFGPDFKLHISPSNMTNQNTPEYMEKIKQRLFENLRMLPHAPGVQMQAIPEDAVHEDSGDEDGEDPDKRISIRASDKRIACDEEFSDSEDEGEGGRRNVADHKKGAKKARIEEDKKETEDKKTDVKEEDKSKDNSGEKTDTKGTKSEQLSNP
T2 sequence (O15379 whole entry): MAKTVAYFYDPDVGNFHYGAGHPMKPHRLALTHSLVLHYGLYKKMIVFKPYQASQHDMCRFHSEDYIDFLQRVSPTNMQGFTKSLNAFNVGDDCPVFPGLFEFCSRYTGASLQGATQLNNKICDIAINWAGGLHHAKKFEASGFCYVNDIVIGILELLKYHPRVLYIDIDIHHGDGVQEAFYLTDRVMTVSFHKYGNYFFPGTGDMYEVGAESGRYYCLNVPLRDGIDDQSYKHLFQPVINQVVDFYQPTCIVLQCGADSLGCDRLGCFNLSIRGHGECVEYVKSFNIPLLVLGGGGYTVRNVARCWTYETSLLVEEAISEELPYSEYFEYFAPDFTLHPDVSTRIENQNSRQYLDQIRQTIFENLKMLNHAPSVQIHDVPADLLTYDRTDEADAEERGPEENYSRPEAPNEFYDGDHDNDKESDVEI
T2 sequence (Q9Y618 389-480 partner limits assumed): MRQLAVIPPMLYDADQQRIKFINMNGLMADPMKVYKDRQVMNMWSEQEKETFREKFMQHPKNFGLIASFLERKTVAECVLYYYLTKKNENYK
T1 sequence (Q13547 whole entry): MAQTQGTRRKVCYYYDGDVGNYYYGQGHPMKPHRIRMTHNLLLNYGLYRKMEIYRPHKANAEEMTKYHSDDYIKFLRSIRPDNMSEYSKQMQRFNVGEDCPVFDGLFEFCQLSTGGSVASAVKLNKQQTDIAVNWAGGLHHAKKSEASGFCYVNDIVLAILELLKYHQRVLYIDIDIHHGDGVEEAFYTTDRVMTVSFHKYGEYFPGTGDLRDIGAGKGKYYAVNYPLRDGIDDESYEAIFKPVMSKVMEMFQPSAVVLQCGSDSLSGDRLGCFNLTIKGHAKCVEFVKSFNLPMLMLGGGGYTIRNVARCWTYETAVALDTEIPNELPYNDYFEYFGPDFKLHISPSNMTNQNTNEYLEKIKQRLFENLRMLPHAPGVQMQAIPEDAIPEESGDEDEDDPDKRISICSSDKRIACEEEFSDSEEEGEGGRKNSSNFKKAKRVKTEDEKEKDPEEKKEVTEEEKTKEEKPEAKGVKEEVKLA

SMILES: CC(=O)N1CCC[C@H]1C(=O)N[C@@H](CCCNC(=N)N)C(=O)N[C@@H](CCCCN)C(=O)N[C@@H](CCC(N)=O)C(=O)N[C@@H](CC(C)C)C(=O)N[C@@H](C)C(=O)N[C@H](C(=O)N[C@@H](CCCCN)C(=O)N[C@@H](C)C(=O)N[C@@H](C)C(=O)N[C@@H](CCCNC(=N)N)C(=O)N[C@@H](CCCCCC(=O)NO)C(=O)N[C@@H](CO)C(=O)N[C@@H](C)C(=O)N1CCC[C@H]1C(=O)N[C@@H](C)C(=O)N[C@@H](Cc1c[nH]c2ccccc12)C(N)=O)[C@@H](C)O [14a] (Ac-PRKQLATKAAR[Asu](NHOH)SAPAW-NH2)
- EC50 [1]: 9.12 nM
- EC50 [2]: 2.95 nM
- EC50 [3]: 3.02 nM
- Ki [4]: 24.7 ± 0.5 nM
- HDAC1 dose-response data (relative enzyme activity), Fig. 6 + S. Fig. 10 ([4]; log[inhibitor(M)] -5): 15.0147 and 10.9187
- HDAC1 dose-response data (relative enzyme activity), Fig. 6 + S. Fig. 10 ([4]; log[inhibitor(M)] -5.69897): 14.0922 and 20.0402
- HDAC1 dose-response data (relative enzyme activity), Fig. 6 + S. Fig. 10 ([4]; log[inhibitor(M)] -6.39794): 32.9512 and 39.8845
- HDAC1 dose-response data (relative enzyme activity), Fig. 6 + S. Fig. 10 ([4]; log[inhibitor(M)] -7.79588): 81.8715 and 100.09
- HDAC1 dose-response data (relative enzyme activity), Fig. 6 + S. Fig. 10 ([4]; log[inhibitor(M)] -8.49485): 94.0176 and 111.23
- HDAC1 dose-response data (relative enzyme activity), Fig. 6 + S. Fig. 10 ([4]; log[inhibitor(M)] -9.19382): 106.697 and 107.189
- HDAC1 dose-response data (relative enzyme activity), Fig. 6 + S. Fig. 10 ([4]; log[inhibitor(M)] -9.89279): 102.41 and 107.234
- HDAC1 dose-response data (relative enzyme activity), Fig. 6 + S. Fig. 10 [4, 9]: 103,6577* and 97,95181*
- HDAC2 dose-response data (relative enzyme activity), Fig. 6 + S. Fig. 10 ([5]; log[inhibitor(M)] -5): 11.6652 and 17.3045
- HDAC2 dose-response data (relative enzyme activity), Fig. 6 + S. Fig. 10 ([5]; log[inhibitor(M)] -5.69897): 34.222 and 35.4537
- HDAC2 dose-response data (relative enzyme activity), Fig. 6 + S. Fig. 10 ([5]; log[inhibitor(M)] -7.79588): 103.08 and 94.3091
- HDAC2 dose-response data (relative enzyme activity), Fig. 6 + S. Fig. 10 [5, 9]: 107,4969* and 95,99841*
- Ki ([5]; resynthesized peptide in solution, Cheng-Prusoff, n = 2): 98 ± 1 nM
- Ki [6]: 16.8 ± 0.2 nM
- HDAC3 dose-response data (relative enzyme activity), Fig. 6 + S. Fig. 10 ([6]; log[inhibitor(M)] -4.30103): 0.8181 and 0.573
- HDAC3 dose-response data (relative enzyme activity), Fig. 6 + S. Fig. 10 ([6]; log[inhibitor(M)] -5): 3.641 and 2.7786
- HDAC3 dose-response data (relative enzyme activity), Fig. 6 + S. Fig. 10 ([6]; log[inhibitor(M)] -5.69897): 13.6613 and 10.1867
- HDAC3 dose-response data (relative enzyme activity), Fig. 6 + S. Fig. 10 ([6]; log[inhibitor(M)] -6.39794): 32.1253 and 23.5469
- HDAC3 dose-response data (relative enzyme activity), Fig. 6 + S. Fig. 10 ([6]; log[inhibitor(M)] -7.09691): 54.9619 and 43.4084
- HDAC3 dose-response data (relative enzyme activity), Fig. 6 + S. Fig. 10 ([6]; log[inhibitor(M)] -7.79588): 82.3244 and 70.9683
- HDAC3 dose-response data (relative enzyme activity), Fig. 6 + S. Fig. 10 ([6]; log[inhibitor(M)] -8.49485): 99.6485 and 88.5218
- HDAC3 dose-response data (relative enzyme activity), Fig. 6 + S. Fig. 10 ([6]; log[inhibitor(M)] -9.19382): 108.712 and 95.7391
- HDAC3 dose-response data (relative enzyme activity), Fig. 6 + S. Fig. 10 ([6]; log[inhibitor(M)] -9.89279): 105.572 and 99.3991
- HDAC3 dose-response data (relative enzyme activity), Fig. 6 + S. Fig. 10 [6, 9]: 106,3724* and 79,46551*
- Ki [7]: 55 ± 0.7 nM
- HDAC8 dose-response data (relative enzyme activity, replicate values), Fig. 6 + S. Fig. 10 ([7]; Inhibitor conc [M] -8.49485 (log)): 89.9056 and 98.262
- HDAC8 dose-response data (relative enzyme activity, replicate values), Fig. 6 + S. Fig. 10 ([7]; Inhibitor conc [M] -9.19382 (log)): 96.4725 and 98.8615
- HDAC8 dose-response data (relative enzyme activity, replicate values), Fig. 6 + S. Fig. 10 ([7]; Inhibitor conc [M] given as -7.09691 (log)): 43.1119 and 55.3592
- HDAC8 dose-response data (relative enzyme activity, replicate values), Fig. 6 + S. Fig. 10 ([7]; Inhibitor conc [M] given as -7.79588 (log)): 72.8593 and 80.9184
- HDAC8 dose-response data (relative enzyme activity, replicate values), Fig. 6 + S. Fig. 10 ([7]; Inhibitor conc [M] given as -9.89279 (log)): 99.4729 and 100.504
- HDAC8 dose-response data (relative enzyme activity), Fig. 6 + S. Fig. 10 ([7]; Inhibitor conc [M] -4.30103): 2.477 and 2.544
- HDAC8 dose-response data (relative enzyme activity), Fig. 6 + S. Fig. 10 ([7]; Inhibitor conc [M] -5): 8.237 and 8.756
- HDAC8 dose-response data (relative enzyme activity), Fig. 6 + S. Fig. 10 ([7]; Inhibitor conc [M] -5.69897): 16.1631 and 21.2375
- HDAC8 dose-response data (relative enzyme activity), Fig. 6 + S. Fig. 10 ([7]; Inhibitor conc [M] -6.39794): 27.7385 and 36.3881
- HDAC8 inhibition in words ([7]; in solution): robust nanomolar potency
- residual enzymatic activity relative to control wells ([8]; inhibitor 5 µM): 82.79
- remaining activity at 5 µM ([8]; inhibitor 5 µM, read-out: residual enzymatic activity relative to control wells): 91.8%
- residual enzymatic activity relative to control wells ([8]; inhibitor 50 µM): 33.99
- remaining activity at 50 µM ([8]; inhibitor 50 µM, read-out: residual enzymatic activity relative to control wells): 41.7%
